Assay results published in US20100286090A1, “Treatment of Multiple Myeloma” (BRISTOL-MYERS SQUIBB COMPANY, priority 2005, published 2010).

System: MM cell lines
Test: effect of dasatinib on cell viability of MM cell lines
Type: cell-based
Conditions: Homo sapiens; in 8/15 MM cell lines tested
From the text: FIG. 1 illustrates results obtained on the effect of dasatinib at varying concentrations on the cell viability of certain MM cell lines.
Described herein are studies on the oral, multi-targeted kinase inhibitor dasatinib (BMS-354825, Bristol-Myers Squibb Co.) which inhibits BCR-ABL, SRC, c-KIT, PDGF-R, and ephrin (EPH) receptor kinases. Although BCR-ABL and c-KIT are not primary oncogenes driving MM proliferation and survival, dasatinib was studied because of (a) emerging data from our laboratory (CS Mitsiades, unpublished observations) on the expression patterns of EPH receptors in MM cell lines and primary tumor specimens; and (b) the roles of PDGF-R and SRC in tumor-microenvironment interactions, e.g., pericyte function in angiogenesis and osteoclast-mediated bone resorption, respectively.
Dasatinib is active against human MM cells which are resistant to conventional or other investigational treatments. […] For those cell lines highly responsive to dasatinib, their IC50 was in a range of concentrations which are deemed clinically achievable levels (based on data derived from the ongoing clinical trials of this compound in other disease setting).

## Cc1nc(Nc2ncc(C(=O)Nc3c(C)cccc3Cl)s2)cc(N2CCN(CCO)CC2)n1 [dasatinib]
  IC50: < 100 nM
